The record followed here is ChEMBL document CHEMBL5291721, “A preclinical secondary pharmacology resource illuminates target-adverse drug reaction associations of marketed drugs” (Nat Commun, 2023).

Assay [1] deals with D(1A) dopamine receptor (Homo sapiens, UniProt P21728). In kind it is functional, cell-based.
For assay [2], the target named is T1, Progesterone receptor (Homo sapiens, UniProt P06401).
T1 sequence (P06401 whole entry): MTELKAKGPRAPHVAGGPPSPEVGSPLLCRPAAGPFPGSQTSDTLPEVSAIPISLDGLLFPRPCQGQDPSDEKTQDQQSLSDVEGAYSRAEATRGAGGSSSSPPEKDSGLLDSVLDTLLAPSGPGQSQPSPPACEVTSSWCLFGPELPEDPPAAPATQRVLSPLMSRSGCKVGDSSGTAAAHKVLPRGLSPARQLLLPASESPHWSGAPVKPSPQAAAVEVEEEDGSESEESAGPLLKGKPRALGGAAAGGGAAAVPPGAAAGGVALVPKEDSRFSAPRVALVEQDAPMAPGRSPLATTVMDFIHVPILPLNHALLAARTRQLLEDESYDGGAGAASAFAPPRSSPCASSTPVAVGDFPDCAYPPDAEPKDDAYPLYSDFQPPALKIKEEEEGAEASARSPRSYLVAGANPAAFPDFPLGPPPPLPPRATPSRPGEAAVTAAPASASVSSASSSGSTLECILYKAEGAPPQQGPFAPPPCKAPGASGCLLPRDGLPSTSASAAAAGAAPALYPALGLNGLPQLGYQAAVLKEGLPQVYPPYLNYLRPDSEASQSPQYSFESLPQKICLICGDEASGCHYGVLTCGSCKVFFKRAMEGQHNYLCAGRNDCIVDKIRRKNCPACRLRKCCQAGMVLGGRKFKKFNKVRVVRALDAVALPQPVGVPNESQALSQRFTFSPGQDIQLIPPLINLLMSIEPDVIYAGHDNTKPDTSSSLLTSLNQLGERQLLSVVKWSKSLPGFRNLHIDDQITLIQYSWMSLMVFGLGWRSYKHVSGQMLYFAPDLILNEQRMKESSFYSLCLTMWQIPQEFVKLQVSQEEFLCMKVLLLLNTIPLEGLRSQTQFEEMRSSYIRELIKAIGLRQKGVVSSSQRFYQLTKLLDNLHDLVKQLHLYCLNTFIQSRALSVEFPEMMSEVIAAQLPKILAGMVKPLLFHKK
The assay is classed as functional.

Assay [3] concerns the target Voltage-dependent L-type calcium channel subunit alpha-1C (Rattus norvegicus, UniProt P22002). The assay is classed as functional.
The target of assay [4] is T2, Cholecystokinin receptor type A (Homo sapiens, UniProt P32238).
T2 sequence (P32238 whole entry): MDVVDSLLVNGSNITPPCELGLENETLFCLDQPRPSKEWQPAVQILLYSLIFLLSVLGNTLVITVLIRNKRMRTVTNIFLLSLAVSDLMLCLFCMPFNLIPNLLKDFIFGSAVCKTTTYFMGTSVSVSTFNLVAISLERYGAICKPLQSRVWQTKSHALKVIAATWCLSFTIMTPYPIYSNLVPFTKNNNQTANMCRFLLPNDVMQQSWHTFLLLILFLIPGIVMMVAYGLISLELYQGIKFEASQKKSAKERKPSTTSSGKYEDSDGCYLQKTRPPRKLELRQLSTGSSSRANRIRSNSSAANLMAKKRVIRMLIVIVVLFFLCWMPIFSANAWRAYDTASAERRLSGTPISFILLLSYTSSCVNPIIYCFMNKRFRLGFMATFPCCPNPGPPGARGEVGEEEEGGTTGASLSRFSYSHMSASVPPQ

Assay [5] deals with T3, Amine oxidase [flavin-containing] A (Homo sapiens, UniProt P21397).
T3 sequence (P21397 whole entry): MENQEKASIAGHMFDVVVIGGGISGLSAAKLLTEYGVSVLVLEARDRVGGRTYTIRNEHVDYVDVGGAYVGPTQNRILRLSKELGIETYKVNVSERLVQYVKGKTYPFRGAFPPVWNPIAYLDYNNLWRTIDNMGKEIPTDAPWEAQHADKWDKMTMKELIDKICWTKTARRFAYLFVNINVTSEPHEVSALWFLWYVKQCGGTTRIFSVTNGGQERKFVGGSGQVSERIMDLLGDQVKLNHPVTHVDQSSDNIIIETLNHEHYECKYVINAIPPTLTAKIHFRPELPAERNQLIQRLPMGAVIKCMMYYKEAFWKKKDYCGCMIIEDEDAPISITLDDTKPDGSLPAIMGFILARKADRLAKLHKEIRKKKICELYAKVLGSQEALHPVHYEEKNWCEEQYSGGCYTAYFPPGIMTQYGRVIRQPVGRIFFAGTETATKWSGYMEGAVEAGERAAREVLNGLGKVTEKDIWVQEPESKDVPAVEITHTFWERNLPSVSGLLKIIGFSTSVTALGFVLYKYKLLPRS
The assay is classed as functional.

The target of assay [6] is Gamma-aminobutyric acid receptor subunit alpha-1 (Rattus norvegicus, UniProt P62813). The assay is classed as functional.
The target of assay [7] is T4, Alpha-2A adrenergic receptor (Homo sapiens, UniProt P08913).
T4 sequence (P08913 whole entry): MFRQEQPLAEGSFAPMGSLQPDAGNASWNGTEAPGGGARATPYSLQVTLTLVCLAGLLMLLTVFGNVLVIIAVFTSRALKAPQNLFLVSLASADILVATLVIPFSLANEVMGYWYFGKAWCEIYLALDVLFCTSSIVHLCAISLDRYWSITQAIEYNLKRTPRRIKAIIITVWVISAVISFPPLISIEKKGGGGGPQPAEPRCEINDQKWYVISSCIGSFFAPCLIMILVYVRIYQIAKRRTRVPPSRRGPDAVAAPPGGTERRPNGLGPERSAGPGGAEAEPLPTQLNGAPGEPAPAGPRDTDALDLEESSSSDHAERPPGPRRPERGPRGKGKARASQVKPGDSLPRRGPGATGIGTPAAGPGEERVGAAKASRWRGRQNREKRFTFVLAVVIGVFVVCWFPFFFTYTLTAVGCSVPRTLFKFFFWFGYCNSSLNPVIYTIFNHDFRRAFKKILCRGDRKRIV
The assay is classed as functional, cell-based.

For assay [8], the target named is Histamine H2 receptor (Homo sapiens, UniProt P25021). In kind it is functional, cell-based.
Assay [9] addresses Neuronal acetylcholine receptor subunit alpha-4 (Homo sapiens, UniProt P43681).
The target of assay [10] is Muscarinic acetylcholine receptor M3 (Homo sapiens, UniProt P20309).
Note: assay procedure not described here.

Neuronal acetylcholine receptor subunit alpha-4, sequence (P43681 whole entry): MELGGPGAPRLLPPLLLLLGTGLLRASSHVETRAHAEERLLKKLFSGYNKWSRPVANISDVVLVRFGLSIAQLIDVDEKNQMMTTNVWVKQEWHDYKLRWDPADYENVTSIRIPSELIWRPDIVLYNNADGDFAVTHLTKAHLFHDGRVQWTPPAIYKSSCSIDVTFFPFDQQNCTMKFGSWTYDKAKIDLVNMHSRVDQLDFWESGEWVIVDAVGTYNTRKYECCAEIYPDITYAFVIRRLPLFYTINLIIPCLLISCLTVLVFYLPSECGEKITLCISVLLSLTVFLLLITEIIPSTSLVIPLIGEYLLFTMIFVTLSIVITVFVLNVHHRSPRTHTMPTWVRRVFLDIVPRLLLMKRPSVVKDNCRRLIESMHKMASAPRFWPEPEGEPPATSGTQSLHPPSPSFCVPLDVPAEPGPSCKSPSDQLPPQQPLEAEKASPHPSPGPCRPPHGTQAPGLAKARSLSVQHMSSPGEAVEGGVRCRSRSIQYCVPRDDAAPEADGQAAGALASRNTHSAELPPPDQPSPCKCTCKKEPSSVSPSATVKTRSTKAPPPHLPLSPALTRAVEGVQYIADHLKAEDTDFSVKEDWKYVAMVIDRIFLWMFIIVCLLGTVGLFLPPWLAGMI
D(1A) dopamine receptor, sequence (P21728 whole entry): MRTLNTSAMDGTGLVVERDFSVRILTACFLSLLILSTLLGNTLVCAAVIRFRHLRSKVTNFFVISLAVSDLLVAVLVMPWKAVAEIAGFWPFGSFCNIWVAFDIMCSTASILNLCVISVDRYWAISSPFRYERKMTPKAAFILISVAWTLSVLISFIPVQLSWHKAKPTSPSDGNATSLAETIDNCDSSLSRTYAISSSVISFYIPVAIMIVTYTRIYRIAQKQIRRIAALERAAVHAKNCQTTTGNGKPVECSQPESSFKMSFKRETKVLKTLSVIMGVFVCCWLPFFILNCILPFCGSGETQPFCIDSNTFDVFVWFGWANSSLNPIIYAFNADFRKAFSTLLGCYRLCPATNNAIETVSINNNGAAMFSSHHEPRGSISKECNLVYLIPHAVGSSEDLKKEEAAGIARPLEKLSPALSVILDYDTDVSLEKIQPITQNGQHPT
Voltage-dependent L-type calcium channel subunit alpha-1C, sequence (P22002 whole entry): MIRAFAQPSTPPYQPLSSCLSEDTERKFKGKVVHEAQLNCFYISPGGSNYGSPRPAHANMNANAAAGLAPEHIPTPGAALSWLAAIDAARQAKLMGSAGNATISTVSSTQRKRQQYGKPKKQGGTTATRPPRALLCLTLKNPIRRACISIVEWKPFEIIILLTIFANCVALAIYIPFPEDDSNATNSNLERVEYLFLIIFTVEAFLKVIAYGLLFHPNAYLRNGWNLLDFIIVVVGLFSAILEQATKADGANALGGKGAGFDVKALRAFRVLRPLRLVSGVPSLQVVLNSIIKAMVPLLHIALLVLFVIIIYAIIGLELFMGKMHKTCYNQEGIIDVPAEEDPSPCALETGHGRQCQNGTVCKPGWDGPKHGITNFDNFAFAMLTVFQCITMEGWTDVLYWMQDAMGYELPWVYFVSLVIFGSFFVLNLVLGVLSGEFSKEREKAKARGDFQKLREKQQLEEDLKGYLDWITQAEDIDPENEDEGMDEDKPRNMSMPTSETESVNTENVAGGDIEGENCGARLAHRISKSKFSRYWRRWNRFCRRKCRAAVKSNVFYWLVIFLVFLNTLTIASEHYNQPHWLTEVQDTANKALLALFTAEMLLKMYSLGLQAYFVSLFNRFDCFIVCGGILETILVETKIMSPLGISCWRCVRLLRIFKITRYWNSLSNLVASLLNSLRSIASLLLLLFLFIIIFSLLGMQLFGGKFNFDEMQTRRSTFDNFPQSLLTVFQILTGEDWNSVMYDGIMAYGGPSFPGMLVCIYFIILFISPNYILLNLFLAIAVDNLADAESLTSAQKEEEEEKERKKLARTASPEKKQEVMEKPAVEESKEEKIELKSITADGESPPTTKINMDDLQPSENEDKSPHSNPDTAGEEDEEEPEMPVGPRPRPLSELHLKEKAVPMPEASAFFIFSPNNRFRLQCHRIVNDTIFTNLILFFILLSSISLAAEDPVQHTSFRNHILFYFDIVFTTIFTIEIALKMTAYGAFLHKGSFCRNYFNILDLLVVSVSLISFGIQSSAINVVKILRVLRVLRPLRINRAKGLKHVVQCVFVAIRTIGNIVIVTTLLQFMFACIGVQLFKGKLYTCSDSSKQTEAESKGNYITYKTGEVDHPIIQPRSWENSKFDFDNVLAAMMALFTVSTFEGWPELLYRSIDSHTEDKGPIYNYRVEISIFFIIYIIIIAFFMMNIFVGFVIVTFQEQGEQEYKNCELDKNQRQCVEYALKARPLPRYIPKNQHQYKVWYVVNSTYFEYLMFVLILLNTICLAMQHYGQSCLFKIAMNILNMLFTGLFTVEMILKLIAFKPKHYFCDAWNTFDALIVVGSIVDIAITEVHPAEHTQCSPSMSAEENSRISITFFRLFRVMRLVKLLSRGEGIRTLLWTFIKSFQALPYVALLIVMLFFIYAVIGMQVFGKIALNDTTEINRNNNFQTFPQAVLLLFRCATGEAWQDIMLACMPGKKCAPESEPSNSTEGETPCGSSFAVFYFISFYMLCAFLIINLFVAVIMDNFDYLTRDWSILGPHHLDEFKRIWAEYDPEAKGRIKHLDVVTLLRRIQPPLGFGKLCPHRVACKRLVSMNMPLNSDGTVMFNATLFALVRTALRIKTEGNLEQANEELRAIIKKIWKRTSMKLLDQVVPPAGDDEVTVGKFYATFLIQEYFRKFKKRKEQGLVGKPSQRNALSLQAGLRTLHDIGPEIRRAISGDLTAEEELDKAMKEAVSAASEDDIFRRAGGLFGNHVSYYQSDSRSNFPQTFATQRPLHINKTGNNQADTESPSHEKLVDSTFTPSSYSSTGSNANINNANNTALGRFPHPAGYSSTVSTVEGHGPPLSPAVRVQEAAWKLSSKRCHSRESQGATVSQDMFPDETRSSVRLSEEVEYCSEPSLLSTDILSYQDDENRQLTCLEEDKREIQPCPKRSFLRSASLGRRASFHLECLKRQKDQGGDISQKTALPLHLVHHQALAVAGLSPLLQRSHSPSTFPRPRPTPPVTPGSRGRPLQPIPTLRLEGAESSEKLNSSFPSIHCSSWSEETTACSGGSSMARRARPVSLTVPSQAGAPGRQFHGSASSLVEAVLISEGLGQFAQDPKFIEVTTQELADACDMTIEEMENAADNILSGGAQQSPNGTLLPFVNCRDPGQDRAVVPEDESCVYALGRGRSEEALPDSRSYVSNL
Histamine H2 receptor, sequence (P25021 whole entry): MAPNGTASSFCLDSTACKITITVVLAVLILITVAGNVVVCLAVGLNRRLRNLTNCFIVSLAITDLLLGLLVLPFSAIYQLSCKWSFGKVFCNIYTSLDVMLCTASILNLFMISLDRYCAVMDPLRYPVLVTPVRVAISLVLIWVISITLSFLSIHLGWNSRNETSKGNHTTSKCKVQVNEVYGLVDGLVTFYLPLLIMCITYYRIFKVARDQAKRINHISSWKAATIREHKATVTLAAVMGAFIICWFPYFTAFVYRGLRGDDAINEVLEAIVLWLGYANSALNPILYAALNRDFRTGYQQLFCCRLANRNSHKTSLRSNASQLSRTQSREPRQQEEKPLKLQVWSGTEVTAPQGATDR
Gamma-aminobutyric acid receptor subunit alpha-1, sequence (P62813 whole entry): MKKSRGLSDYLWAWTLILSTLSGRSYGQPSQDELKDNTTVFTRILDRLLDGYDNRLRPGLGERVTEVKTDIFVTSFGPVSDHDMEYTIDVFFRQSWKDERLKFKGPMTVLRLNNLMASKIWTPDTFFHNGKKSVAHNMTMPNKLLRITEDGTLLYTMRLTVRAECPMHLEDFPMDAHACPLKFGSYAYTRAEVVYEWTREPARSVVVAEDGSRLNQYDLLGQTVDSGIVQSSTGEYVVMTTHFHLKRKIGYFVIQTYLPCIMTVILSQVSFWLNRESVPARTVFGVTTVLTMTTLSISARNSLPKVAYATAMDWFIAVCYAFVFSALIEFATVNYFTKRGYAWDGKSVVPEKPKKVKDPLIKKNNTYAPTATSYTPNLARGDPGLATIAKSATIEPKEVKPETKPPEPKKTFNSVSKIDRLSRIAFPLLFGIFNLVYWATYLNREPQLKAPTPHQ
Muscarinic acetylcholine receptor M3, sequence (P20309 whole entry): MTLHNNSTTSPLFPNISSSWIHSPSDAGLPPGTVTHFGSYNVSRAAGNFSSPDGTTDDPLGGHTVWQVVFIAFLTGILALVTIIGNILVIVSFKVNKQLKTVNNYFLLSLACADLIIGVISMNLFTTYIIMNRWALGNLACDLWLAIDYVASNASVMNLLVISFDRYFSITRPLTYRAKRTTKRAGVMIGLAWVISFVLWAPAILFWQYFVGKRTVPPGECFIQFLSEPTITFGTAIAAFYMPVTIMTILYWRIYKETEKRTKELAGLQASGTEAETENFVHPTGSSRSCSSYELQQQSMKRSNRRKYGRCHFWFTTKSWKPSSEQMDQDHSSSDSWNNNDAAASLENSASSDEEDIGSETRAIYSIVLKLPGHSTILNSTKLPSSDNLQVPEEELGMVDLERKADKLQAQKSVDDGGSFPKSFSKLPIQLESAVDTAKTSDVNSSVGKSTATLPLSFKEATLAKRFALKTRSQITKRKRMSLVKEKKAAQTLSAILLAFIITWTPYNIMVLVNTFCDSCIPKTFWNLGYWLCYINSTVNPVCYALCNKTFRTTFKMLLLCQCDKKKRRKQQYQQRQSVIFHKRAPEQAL

For the compound `CCCCCCNC(=O)n1cc(F)c(=O)[nH]c1=O` [CARMOFUR], the AC50 in assay [1], in assay [2], in assay [3], in assay [4], in assay [5] and in assay [6] was more than 30 µM throughout. Further, the AC50 in [7], in assay [8] and in assay [9] was more than 30 µM each time.
On to `CC(C)(C)NCC(O)c1cc(Cl)c(N)c(Cl)c1` (configuration not stated) [CLENBUTEROL], for which the AC50 in assay [1], in assay [2], in [3], in [4], in [5] and in assay [6] was more than 30 µM each time. The concentration at half-maximal activity (AC50) in [7], in assay [8] and in [9] was more than 30 µM each time.
On to `Nc1ccn([C@@H]2O[C@H](CO)[C@@H](O)C2(F)F)c(=O)n1` [GEMCITABINE], for which the AC50 – broadly, the concentration giving half of the maximal activity seen – in assay [1] is more than 10 µM; in assay [2], more than 30 µM; in assay [3], more than 10 µM; in assay [4] it was more than 30 µM; in assay [5] it was more than 10 µM; in assay [6] it was more than 10 µM. Also, the AC50 in [7], in [8] and in assay [9] was more than 10 µM each time.
Consider `Nc1nc2c(c(=O)[nH]1)N(C=O)C(CNc1ccc(C(=O)N[C@@H](CCC(=O)O)C(=O)O)cc1)CN2` (some centres not stated) [LEUCOVORIN], for which the AC50 in [1], in [2], in assay [3], in [4], in [5] and in [6] was more than 30 µM each time. The AC50 in assay [7], in [8] and in assay [9] was more than 30 µM in each case.
In the case of `[H]/N=C(/N)N[C@H]1[C@H](O)[C@@H](O)[C@H](O[C@@H]2O[C@@H](C)[C@](O)(C=O)[C@H]2O[C@@H]2O[C@@H](CO)[C@H](O)[C@@H](O)[C@@H]2NC)[C@@H](N/C(N)=N\[H])[C@@H]1O` [STREPTOMYCIN], the AC50 in assay [1], in assay [2], in assay [3], in assay [4], in [5] and in assay [6] was more than 30 µM in each case. Also, the AC50 in [7], in assay [8] and in assay [9] was more than 30 µM in each case.
Regarding `CC(C)(C)NC[C@H](O)COc1nsnc1N1CCOCC1` [TIMOLOL], the AC50 in [1], in assay [2], in assay [3], in assay [4], in [5] and in assay [6] was more than 30 µM throughout. Besides, the AC50 in assay [7], in assay [8] and in [9] was more than 30 µM in each case.
With `Cc1cccc(N(C)C(=S)Oc2ccc3ccccc3c2)c1` [TOLNAFTATE], the AC50 was more than 30 µM in assay [1]; more than 30 µM in [2]; 25 µM in assay [3]; more than 10 µM in assay [4]; more than 30 µM in assay [5]; more than 10 µM in assay [6]. Moreover, the half-maximal activity concentration (AC50) in [7] is more than 10 µM; in [8], more than 30 µM; in assay [9], more than 10 µM.
In the case of `N#C[C@@H]1CCCN1C(=O)CNC12CC3CC(CC(O)(C3)C1)C2` [VILDAGLIPTIN], the AC50 in assay [1], in assay [10], in assay [4], in [5], in assay [6] and in assay [7] was more than 30 µM in each case. Moreover, the AC50 is more than 30 µM in [8] and more than 10 µM in assay [9].
For COLISTIN, the AC50 in assay [1], in [10], in assay [5], in assay [6], in [7] and in [8] was more than 30 µM in each case.
